We go through 29 molecules from ChEMBL document CHEMBL1156829 (Proc Natl Acad Sci U S A, 2008).

Data set [1] concerns Plasmodium falciparum. The experiment in a line: NOVARTIS: Inhibition of Plasmodium falciparum W2 (drug-resistant) proliferation in erythrocyte-based infection assay. It is filed as functional, organism-based. Conditions: read-out: EC50.
The subject of a further data set is Huh-7. The experiment in a line: (§1) NOVARTIS: Cytotoxicity against human hepatocellular carcinoma cell line (Huh7). Format: toxicity, cell-based.
For data set [2], the system named is Plasmodium falciparum. The experiment in a line: NOVARTIS: Inhibition of Plasmodium falciparum 3D7 (drug-susceptible) proliferation in erythrocyte-based infection assay. Format: functional, organism-based.
Data set [3] in a line: as §1. It is filed as toxicity, cell-based, Huh-7. Conditions: Huh7 cells (hepatocellular carcinoma cell line).

Each structure is given as a SMILES string. “And” between values parts separate entries of the source, which are not always exact repeats. Equal entries are not always repeated. Structures can show the parent of a compound that is named as a salt. Numbered stars: 1 amine (or outer) side, 2 acyl side, 3 side chain; on linkers, the order of the positions; unused ones are H or OH. Bridge positions count the residues as written; N and C are the ends. Square brackets hold non-standard residues; d marks the D form. Peptide text beside a SMILES is read from it. I, II: the chains in the order shown. Actinocin(1to9) = Cc1c2oc3c(C)ccc(C(=O)[*:2])c3nc-2c(C(=O)[*:1])c(N)c1=O; NMeV = CN[C@H](C(=O)O)C(C)C; Sar = CNCC(=O)O Where only a bound is given, the exact number is not on record here.

With `CC[n+]1c(C=CN(C)c2ccccc2)sc2ccc(OC)cc21.[O-][Cl+3]([O-])([O-])[O-]`, the EC50 with Plasmodium falciparum [1] (Plasmodium falciparum, W2) amounted to 255 nM; in the data set on Plasmodium falciparum [2] (Plasmodium falciparum, 3D7) it was 145 nM. Moreover, the 50% cytotoxic concentration (CC50) with Huh-7 (huh-7, read-out: CC50) is over 100 µM.

Regarding `CN(C)c1ccc(C=CC=Cc2cccc[n+]2C)cc1.[O-][Cl+3]([O-])([O-])[O-]`, the 50% effective concentration (EC50) in the data set with Plasmodium falciparum [1] (Plasmodium falciparum, W2) worked out at 178 nM; with Plasmodium falciparum [2] (Plasmodium falciparum, 3D7), 283 nM. For the same molecule, the CC50 in the data set on Huh-7 (huh-7, read-out: CC50) is over 100 µM.

In the case of `CN(C)c1ccc(C=CC=Cc2cc[n+](C)cc2)cc1.[O-][Cl+3]([O-])([O-])[O-]`, the EC50 with Plasmodium falciparum [1] (Plasmodium falciparum, W2) was 532 nM; in the data set on Plasmodium falciparum [2] (Plasmodium falciparum, 3D7) it was 770 nM. For the same molecule, the CC50 in the data set with Huh-7 (huh-7, read-out: CC50) is over 100 µM.

Regarding `Cc1cc(=O)n(-c2nc(-c3ccccc3O)nc3ccccc23)[nH]1`, the EC50 in the data set with Plasmodium falciparum [1] (Plasmodium falciparum, W2) is 752 nM; in the data set with Plasmodium falciparum [2] (Plasmodium falciparum, 3D7) it was 824 nM. Moreover, the CC50 entry in the data set with Huh-7 (huh-7) was “No fit”.

For `OC(CN1CCN(C/C=C/c2ccccc2)CC1)Cn1c2ccc(Cl)cc2c2cc(Cl)ccc21` (stereo not drawn), the EC50 came to 162 nM in the data set with Plasmodium falciparum [1] (Plasmodium falciparum, W2) and 660 nM with Plasmodium falciparum [2] (Plasmodium falciparum, 3D7). Further, the CC50 result in the data set with Huh-7 (huh-7) is given as “No fit”.

As for `CCN1C(=Cc2sc3ccc(O)cc3[n+]2CC)C=Cc2cc(C)ccc21`, the EC50 in the data set on Plasmodium falciparum [1] (Plasmodium falciparum, W2) was 291 nM; with Plasmodium falciparum [1], 383 nM; in the data set on Plasmodium falciparum [2], 188 nM and 376 nM. Moreover, the CC50 in data set [3] was 5.79 µM; in the data set with Huh-7 (huh-7, read-out: CC50), over 10 µM.

With `Cc1nn(CC(O)Cn2c3ccc(Cl)cc3c3cc(Cl)ccc32)c(C)c1Br` (stereo not drawn), the EC50 was 190 nM with Plasmodium falciparum [1] (Plasmodium falciparum, W2) and 602 nM in the data set on Plasmodium falciparum [2] (Plasmodium falciparum, 3D7). Moreover, in the data set on Huh-7 (huh-7), the CC50 result was “No fit”.

Turning to `COC(=O)C1=CN(Cc2ccc(OC)cc2)C=C(C(=O)OC)C1c1cccc([N+](=O)[O-])c1`, the concentration for a half-maximal effect (EC50) is over 1250 nM with Plasmodium falciparum [1] (Plasmodium falciparum, W2) and 2120 nM with Plasmodium falciparum [2] (Plasmodium falciparum, 3D7). Also, the CC50 result with Huh-7 (huh-7) is “No fit”.

Turning to `COc1ccc(C=C2SC(Nc3ccc(F)cc3)=NC2=O)c(OC)c1`, the 50% effective concentration (EC50) came out at 753 nM in the data set with Plasmodium falciparum [1] (Plasmodium falciparum, W2); 532 nM with Plasmodium falciparum [1]; 277 nM in the data set on Plasmodium falciparum [2]; 266 nM in the data set with Plasmodium falciparum [2] (Plasmodium falciparum, 3D7). For the same molecule, the CC50 turned out to be 12.2 µM in data set [3] and 12 µM in the data set on Huh-7 (huh-7, read-out: CC50).

For the molecule `CCCCN1C(=Cc2cccc[n+]2C)Sc2cc(NC(C)=O)ccc21`, the EC50 with Plasmodium falciparum [1] was over 1250 nM; in the data set on Plasmodium falciparum [2] (Plasmodium falciparum, 3D7), over 1110 nM. Moreover, the CC50 in the data set on Huh-7 (huh-7, read-out: CC50) was over 10 µM.

With `Cc1cc(/C=C2\Sc3ccccc3N2C)[n+](C)c2ccccc12`, the EC50 in the data set with Plasmodium falciparum [1] (Plasmodium falciparum, W2) is 94 nM; in the data set on Plasmodium falciparum [1], 80.2 nM; in the data set with Plasmodium falciparum [2] it was 90.6 nM and 39.2 nM. For the same molecule, the CC50 came out at 6.37 µM in data set [3] and 11.5 µM in the data set on Huh-7 (huh-7, read-out: CC50).

Turning to `C=CC[n+]1c(C=C2C=CC=CN2C)sc2ccccc21`, the concentration for a half-maximal effect (EC50) in the data set with Plasmodium falciparum [1] is over 1010 nM; in the data set with Plasmodium falciparum [2] (Plasmodium falciparum, 3D7), 491 nM. In the data set on Huh-7 (huh-7, read-out: CC50), the CC50 is over 10 µM.

As to `CCN1/C(=C/C=C/c2oc3ccc(-c4ccccc4)cc3[n+]2CC)Oc2ccc(-c3ccccc3)cc21`, the EC50 in the data set with Plasmodium falciparum [1] (Plasmodium falciparum, W2) is 1060 nM; in the data set with Plasmodium falciparum [1], over 569 nM; with Plasmodium falciparum [2] (Plasmodium falciparum, 3D7), over 1720 nM. Moreover, the half-maximal cytotoxic concentration (CC50) is over 10 µM in data set [3] and 10.7 µM in the data set on Huh-7 (huh-7, read-out: CC50).

Regarding `CN(C)c1ccc(C=CC=Cc2cccc[n+]2C)cc1`, the concentration giving a half-maximal response (EC50) is under 8.47 nM in the data set on Plasmodium falciparum [1] (Plasmodium falciparum, W2) and 108 nM in the data set on Plasmodium falciparum [2] (Plasmodium falciparum, 3D7). Moreover, the CC50 in the data set on Huh-7 (huh-7, read-out: CC50) is over 10 µM.

For the molecule `CCN(CC)c1ccc(C=Cc2cc[n+](Cc3ccc(F)cc3)cc2)cc1`, the EC50 with Plasmodium falciparum [1] (Plasmodium falciparum, W2) was 769 nM; in the data set on Plasmodium falciparum [1] it was 578 nM; with Plasmodium falciparum [2], 417 nM; in the data set with Plasmodium falciparum [2] (Plasmodium falciparum, 3D7) it was 241 nM. Further, the CC50 was 5.29 µM in data set [3] and over 10 µM with Huh-7 (huh-7, read-out: CC50).

For the molecule `CCN1/C(=C/c2ccc3ccccc3[n+]2CC)Sc2c1ccc1ccccc21`, the concentration for a half-maximal effect (EC50) with Plasmodium falciparum [1] was 682 nM and > 621 nM and 212 nM; with Plasmodium falciparum [2] it was 225 nM and 631 nM and 334 nM. Moreover, the CC50 in data set [3] is over 10 µM; with Huh-7 (huh-7, read-out: CC50), 7.14 µM.

Turning to `CC[n+]1c(/C=C/N2CCCc3ccccc32)ccc2ccccc21`, the EC50 with Plasmodium falciparum [1] (Plasmodium falciparum, W2) amounted to 145 nM; with Plasmodium falciparum [2] (Plasmodium falciparum, 3D7), 75.7 nM. The 50% cytotoxic concentration (CC50) with Huh-7 (huh-7, read-out: CC50) was 2.34 µM.

On to `Cc1[nH]c2ccccc2c1/C=C/c1cc[n+](C)cc1`, for which the EC50 was 116 nM with Plasmodium falciparum [1] (Plasmodium falciparum, W2) and 259 nM in the data set on Plasmodium falciparum [2] (Plasmodium falciparum, 3D7). Also, the CC50 in the data set on Huh-7 (huh-7, read-out: CC50) was over 10 µM.

Consider `CCN1/C(=C/c2ccc3cc(OC)ccc3[n+]2CC)Sc2cc(C)ccc21`, for which the EC50 in the data set on Plasmodium falciparum [1] was 275 nM and 86.2 nM; with Plasmodium falciparum [2] it was 90.7 nM; in the data set on Plasmodium falciparum [2] (Plasmodium falciparum, 3D7), 161 nM. Besides, the CC50 amounted to 19.2 µM in data set [3] and 11.7 µM in the data set with Huh-7 (huh-7, read-out: CC50).

For the molecule `CCn1c(C=CN(C(C)=O)c2ccccc2)[n+](CC)c2cc(Cl)ccc21`, the EC50 is over 1060 nM with Plasmodium falciparum [1] (Plasmodium falciparum, W2) and over 1650 nM with Plasmodium falciparum [2] (Plasmodium falciparum, 3D7). For the same molecule, the CC50 in the data set on Huh-7 (huh-7, read-out: CC50) is over 10 µM.

Take `O=C(NCCc1ccccc1)C1CCC(Cn2c(=S)[nH]c3ccccc3c2=O)CC1` (stereo not drawn): the EC50 was 1750 nM with Plasmodium falciparum [1] (Plasmodium falciparum, W2) and over 1650 nM in the data set with Plasmodium falciparum [2] (Plasmodium falciparum, 3D7). For the same molecule, in the data set with Huh-7 (huh-7), the CC50 entry is on record as “No fit”.

With `C[n+]1c2ccccc2nc2ccc(NCCc3cnc[nH]3)cc21`, the EC50 was 405 nM in the data set on Plasmodium falciparum [1] (Plasmodium falciparum, W2) and 139 nM in the data set on Plasmodium falciparum [2] (Plasmodium falciparum, 3D7). For the same molecule, the CC50 entry with Huh-7 (huh-7) is “No fit”.

For the molecule `COc1ccc(/C=C2\SC(=O)NC2=Nc2ccccc2)cc1`, the EC50 with Plasmodium falciparum [1] is 1300 nM and 378 nM; with Plasmodium falciparum [2] (Plasmodium falciparum, 3D7) it was 819 nM. Further, in the data set with Huh-7 (huh-7, read-out: CC50), the CC50 is over 100 µM.

As to `CCN1/C(=C/c2cccc[n+]2C)Sc2ccc(OC)cc21`, the EC50 was > 867 nM and 304 nM with Plasmodium falciparum [1]; 207 nM with Plasmodium falciparum [2] (Plasmodium falciparum, 3D7). Besides, in the data set on Huh-7 (huh-7, read-out: CC50), the CC50 was over 100 µM.

As for `CC[n+]1c(C=CC=C2N(C)c3ccccc3C2(C)C)sc2ccccc21.[O-][Cl+3]([O-])([O-])[O-]`, the 50% effective concentration (EC50) was 177 nM with Plasmodium falciparum [1] (Plasmodium falciparum, W2) and 149 nM in the data set with Plasmodium falciparum [2] (Plasmodium falciparum, 3D7). Also, in the data set with Huh-7 (huh-7, read-out: CC50), the CC50 is 1.63 µM.

With `CCN1/C(=C/C=C/c2sc3ccccc3[n+]2CC)Sc2ccccc21` [ALAZANINE], the EC50 in the data set on Plasmodium falciparum [1] was found to be 1060 nM; with Plasmodium falciparum [2] (Plasmodium falciparum, 3D7), 200 nM. Moreover, the CC50 in the data set on Huh-7 (huh-7, read-out: CC50) was 27 µM.

Consider `Cc1c2oc3c(C)ccc(C(=O)N[C@@H]4C(=O)N[C@H](C(C)C)C(=O)N5CCC[C@H]5C(=O)N(C)CC(=O)N(C)[C@@H](C(C)C)C(=O)O[C@@H]4C)c3nc-2c(C(=O)N[C@@H]2C(=O)N[C@H](C(C)C)C(=O)N3CCC[C@H]3C(=O)N(C)CC(=O)N(C)[C@@H](C(C)C)C(=O)O[C@@H]2C)c(N)c1=O` [DACTINOMYCIN] (I: T[dV]P[Sar][NMeV] / II: T[dV]P[Sar][NMeV]; ester I:1-I:C, II:1-II:C; linker I:N-II:N via Actinocin(1to9)), for which the EC50 is 214 nM in the data set on Plasmodium falciparum [1] (Plasmodium falciparum, W2); 395 nM with Plasmodium falciparum [1]; 323 nM and 807 nM in the data set on Plasmodium falciparum [2]. In addition, the CC50 in the data set on Huh-7 (huh-7, read-out: CC50) was 4.18 µM and > 10 µM.

As for `CCOc1ccc2nccc([C@@H](O)[C@@H]3C[C@@H]4CCN3C[C@@H]4CC)c2c1` [ETHYLHYDROCUPREINE HYDROCHLORIDE], the EC50 is under 3.48 nM with Plasmodium falciparum [1] and 39 nM with Plasmodium falciparum [2]. In addition, the CC50 in the data set on Huh-7 (huh-7, read-out: CC50) was over 10 µM.

Turning to `CCOc1ccc2nccc([C@@H](O)[C@@H]3C[C@@H]4CCN3C[C@@H]4CC)c2c1` [ETHYLHYDROCUPREINE], the EC50 in the data set with Plasmodium falciparum [1] was found to be 25.7 nM; in the data set on Plasmodium falciparum [2] (Plasmodium falciparum, 3D7), 31.8 nM. Further, the CC50 with Huh-7 (huh-7, read-out: CC50) was 53.8 µM.

As a reminder, the EC50 is the concentration that produces a half-maximal response. By CC50 is commonly meant the concentration that lowers cell viability or growth by half.
